Key:
Format in all cases: functional
Enterococcus faecalis = assay: Antibacterial activity against Enterococcus faecalis OG1RF assessed as growth inhibition after 72 hrs by broth microdilution method
Escherichia coli = assay: Antibacterial activity against Escherichia coli MC4100 assessed as growth inhibition after 72 hrs by broth microdilution method; details: MC4100, 72 h
Staphylococcus aureus = assay: Antibacterial activity against Staphylococcus aureus SH1000 assessed as growth inhibition after 72 hrs by broth microdilution method; details: SH1000, 72 h
Pseudomonas aeruginosa = assay: Antibacterial activity against wild-type Pseudomonas aeruginosa PAO1 assessed as growth inhibition after 72 hrs by broth microdilution method; details: PAO1, 72 h

Row | MIC (Enterococcus faecalis) | MIC (Escherichia coli) | MIC (Staphylococcus aureus) | MIC (Pseudomonas aeruginosa) | SMILES
1 | 2 µM | 8 µM | 2 µM | 32 µM | CCCCCCCCCCCCCCCCCC[N+](C)(C)CC[N+](C)(C)CCCCCCCC
2 | 2 µM | 2 µM | 1 µM | 2 µM | CCCCCCCCCCCC[N+](C)(C)CC[N+](C)(C)CCCCCCCCCC
3 | 63 µM | 63 µM | 8 µM | 125 µM | CCCCCCCCCC[N+](C)(C)CC[N+](C)(C)CCCCCCCC
4 | 1 µM | 2 µM | 1 µM | 2 µM | CCCCCCCCCCCCC[N+](C)(C)CC[N+](C)(C)CCCCCCCCCC
5 | > 1000 µM | > 1000 µM | > 1000 µM | > 1000 µM | CCCCCCCC[N+](C)(C)CCN(C)C
6 | 32 µM | 63 µM | 16 µM | 63 µM | CCCCCCCCCCCCCCCCCCCC[N+](C)(C)CC[N+](C)(C)CCCCCCCCCCCCCCCC
7 | 16 µM | 16 µM | 8 µM | 63 µM | CCCCCCCCCCCCCCCCCCCC[N+](C)(C)CC[N+](C)(C)CCCCCCCCCCCCCC
8 | 4 µM | 32 µM | 8 µM | 63 µM | CCCCCCCCCCCCCCCCCCCC[N+](C)(C)CC[N+](C)(C)CCCCCCCCCCCC
9 | 8 µM | 32 µM | 8 µM | 63 µM | CCCCCCCCCCCCCCCC[N+](C)(C)CC[N+](C)(C)CCCCCCCCCCCCCCCC
10 | 4 µM | 8 µM | 4 µM | 32 µM | CCCCCCCCCCCCCCCC[N+](C)(C)CC[N+](C)(C)CCCCCCCCCC
11 | 2 µM | 4 µM | 4 µM | 32 µM | CCCCCCCCCCCCCC[N+](C)(C)CC[N+](C)(C)CCCCCCCCCCCCCC
12 | 2 µM | 2 µM | 1 µM | 8 µM | CCCCCCCCCCCCCC[N+](C)(C)CC[N+](C)(C)CCCCCCCCCCCC
13 | 1 µM | 2 µM | 1 µM | 4 µM | CCCCCCCCCCCC[N+](C)(C)CC[N+](C)(C)CCCCCCCCCCCC

Second part, the compound before the results:

Row | SMILES | MIC (Enterococcus faecalis) | MIC (Escherichia coli) | MIC (Staphylococcus aureus) | MIC (Pseudomonas aeruginosa)
14 | CCCCCCCCCCCC[N+](C)(C)CC[N+](C)(C)CCCCCCCC | 4 µM | 4 µM | 1 µM | 4 µM
15 | CCCCCCCC[N+](C)(C)CC[N+](C)(C)CCCCCCCC | 500 µM | 250 µM | 32 µM | 500 µM
16 | CCCCCCCCCCC[N+](C)(C)CC[N+](C)(C)CCCCCCCCCC | 4 µM | 4 µM | 1 µM | 4 µM
17 | CCCCCCCCCCCCCCCCCCCC[N+](C)(C)CCN(C)C | 4 µM | 63 µM | 4 µM | 125 µM
18 | CCCCCCCCCCCCCCCCCC[N+](C)(C)CCN(C)C | 4 µM | 63 µM | 2 µM | 63 µM
19 | CCCCCCCCCCCCCCCC[N+](C)(C)CCN(C)C | 16 µM | 16 µM | 1 µM | 16 µM
20 | CCCCCCCCCCCCCC[N+](C)(C)CCN(C)C | 8 µM | 16 µM | 2 µM | 125 µM
21 | CCCCCCCCCCCC[N+](C)(C)CCN(C)C | 63 µM | 63 µM | 32 µM | 250 µM
22 | CCCCCCCCCC[N+](C)(C)CCN(C)C | 250 µM | 250 µM | 63 µM | 250 µM
23 | CCCCCCCCCCCCCCCCCCCC[N+](C)(C)CC[N+](C)(C)CCCCCCCCCC | 16 µM | 16 µM | 4 µM | 16 µM
24 | CCCCCCCCCCCCCCCCCCCC[N+](C)(C)CC[N+](C)(C)CCCCCCCC | 4 µM | 16 µM | 4 µM | 32 µM
25 | CCCCCCCCCCCCCCCCCC[N+](C)(C)CC[N+](C)(C)CCCCCCCCCCCCCCCCCC | 63 µM | 250 µM | 32 µM | 500 µM
26 | CCCCCCCCCCCCCCCCCC[N+](C)(C)CC[N+](C)(C)CCCCCCCCCCCCCCCC | 32 µM | 32 µM | 16 µM | 63 µM
27 | CCCCCCCCCCCCCCCCCC[N+](C)(C)CC[N+](C)(C)CCCCCCCCCCCCCC | 16 µM | 16 µM | 8 µM | 63 µM
28 | CCCCCCCCCCCCCCCCCC[N+](C)(C)CC[N+](C)(C)CCCCCCCCCCCC | 4 µM | 16 µM | 4 µM | 32 µM
29 | CCCCCCCCCCCCCCCCCC[N+](C)(C)CC[N+](C)(C)CCCCCCCCCC | 2 µM | 16 µM | 4 µM | 32 µM
30 | CCCCCCCCCCCCCCCC[N+](C)(C)CC[N+](C)(C)CCCCCCCCCCCCCC | 2 µM | 16 µM | 8 µM | 63 µM
31 | CCCCCCCCCCCCCCCC[N+](C)(C)CC[N+](C)(C)CCCCCCCCCCCC | 4 µM | 8 µM | 8 µM | 32 µM
32 | CCCCCCCCCCCCCCCC[N+](C)(C)CC[N+](C)(C)CCCCCCCC | 2 µM | 2 µM | 2 µM | 4 µM
33 | CCCCCCCCCCCCCC[N+](C)(C)CC[N+](C)(C)CCCCCCCCCC | 1 µM | 2 µM | 4 µM | 4 µM
34 | CCCCCCCCCCCCCC[N+](C)(C)CC[N+](C)(C)CCCCCCCC | 2 µM | 2 µM | 1 µM | 4 µM
35 | CCCCCCCCCC[N+](C)(C)CC[N+](C)(C)CCCCCCCCCC | 8 µM | 16 µM | 2 µM | 8 µM

From ChEMBL document CHEMBL3098048, “TMEDA-derived biscationic amphiphiles: An economical preparation of potent antibacterial agents” (2014)
